Test results: PubChem BioAssay (NCI)
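Five concentrations, 48 hours, 96-well plates. Here, GI50 denotes the concentration required for 50% inhibition of growth. TGI is the concentration that stops growth completely.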

How the values were obtained:
Assay in all cases: growth of human tumour cells (NCI), 48 h
[1] = test system: LOX IMVI melanoma
[2] = test system: SK-MEL-2 melanoma
[3] = test system: OVCAR-4 ovarian
[4] = test system: UACC-62 melanoma
[5] = test system: MCF7 breast
[6] = test system: IGROV1 ovarian
[7] = test system: UACC-257 melanoma
[8] = test system: SF-295 CNS
[9] = test system: DU-145 prostate
[10] = test system: NCI-H23 lung
[11] = test system: CCRF-CEM leukemia
[12] = test system: 786-0 renal
[13] = test system: MOLT-4 leukemia
[14] = test system: TK-10 renal
[15] = test system: HL-60(TB) leukemia
[16] = test system: HCT-15 colon
[17] = test system: OVCAR-8 ovarian
[18] = test system: SK-OV-3 ovarian
[19] = test system: PC-3 prostate
[20] = test system: MDA-MB-435
[21] = test system: HCC-2998 colon
[22] = test system: NCI/ADR-RES ovarian
[23] = test system: SNB-75 CNS
[24] = test system: MALME-3M melanoma
[25] = test system: RXF 393 renal
[26] = test system: RPMI-8226 leukemia
[27] = test system: HOP-62 NSCLC
[28] = test system: A498 renal
[29] = test system: COLO 205 colon
[30] = test system: SK-MEL-5 melanoma
[31] = test system: OVCAR-5 ovarian
[32] = test system: NCI-H522 lung
[33] = test system: SW-620 colon
[34] = test system: HT29 colon
[35] = test system: KM12 colon
[36] = test system: A549 NSCLC
[37] = test system: NCI-H460 lung
[38] = test system: HOP-92 NSCLC
[39] = test system: UO-31 renal
[40] = test system: K-562 leukemia
[41] = test system: SNB-19 CNS
[42] = test system: SF-268 CNS
[43] = test system: HS 578T breast
[44] = test system: U251 CNS
[45] = test system: M14 melanoma
[46] = test system: OVCAR-3 ovarian
[47] = test system: MDA-MB-231 breast
[48] = test system: SF-539 CNS
[49] = test system: HCT-116 colon
[50] = test system: T-47D breast
[51] = test system: BT-549 breast
[52] = test system: EKVX NSCLC
[53] = test system: SR leukemia
[54] = test system: SK-MEL-28 melanoma
[55] = test system: ACHN renal
[56] = test system: CAKI-1 renal
[57] = test system: SN12C renal
[58] = test system: NCI-H226 lung

## CC(C)=CCc1ccc(O)c(=O)cc1C(C)C
[1]
  GI50: 0.327 µM
  TGI: > 22.9 µM
[2]
  GI50: 2.06 µM
  TGI: > 85.7 µM
[3]
  GI50: 0.532 µM
  TGI: > 100 µM
[4]
  GI50: 0.493 µM
  TGI: 4.38 µM
[5]
  GI50: 0.501 µM
  TGI: > 100 µM
[6]
  GI50: 0.43 µM
  TGI: 16.1 µM
[7]
  GI50: 1.59 µM
  TGI: > 100 µM
[8]
  GI50: 0.939 µM
  TGI: > 36.9 µM
[9]
  GI50: 0.889 µM
  TGI: > 100 µM
[10]
  GI50: 0.701 µM
  TGI: > 51.3 µM
[11]
  GI50: 0.485 µM
  TGI: > 100 µM
[12]
  GI50: 0.816 µM
  TGI: 5.4 µM
[13]
  GI50: 0.394 µM
  TGI: > 100 µM
[14]
  GI50: 0.746 µM
  TGI: > 100 µM
[15]
  GI50: 0.624 µM
  TGI: 8.72 µM
[16]
  GI50: 0.362 µM
  TGI: > 100 µM
[17]
  GI50: 0.413 µM
  TGI: > 100 µM
[18]
  GI50: 0.903 µM
  TGI: > 100 µM
[19]
  GI50: 1.13 µM
  TGI: > 100 µM
[20]
  GI50: 0.814 µM
  TGI: > 100 µM
[21]
  GI50: 0.583 µM
  TGI: 29.8 µM
[22]
  GI50: 0.336 µM
  TGI: 2.74 µM
[23]
  GI50: 2.88 µM
  TGI: > 100 µM
[24]
  GI50: 0.966 µM
  TGI: 9.39 µM
[25]
  GI50: 1.55 µM
  TGI: 17.4 µM
[26]
  GI50: 0.673 µM
  TGI: > 91.3 µM
[27]
  GI50: 0.685 µM
  TGI: > 100 µM
[28]
  GI50: 5.18 µM
  TGI: 64.7 µM
[29]
  GI50: 3.27 µM
  TGI: > 100 µM
[30]
  GI50: 0.582 µM
  TGI: 4.08 µM
[31]
  GI50: 3.39 µM
  TGI: > 100 µM
[32]
  GI50: 1.22 µM
  TGI: 69.9 µM
[33]
  GI50: 0.566 µM
  TGI: > 100 µM
[34]
  GI50: 1.51 µM
  TGI: > 100 µM
[35]
  GI50: 0.641 µM
  TGI: > 100 µM
[36]
  GI50: 0.656 µM
  TGI: > 100 µM
[37]
  GI50: 0.42 µM
  TGI: > 33.1 µM
[38]
  GI50: 1.32 µM
  TGI: 65.3 µM
[39]
  GI50: 0.378 µM
  TGI: 3.92 µM
[40]
  GI50: 0.466 µM
  TGI: > 100 µM
[41]
  GI50: 0.735 µM
  TGI: > 100 µM
[42]
  GI50: 0.671 µM
  TGI: > 100 µM
[43]
  GI50: 48.1 µM
  TGI: > 100 µM
[44]
  GI50: 0.472 µM
  TGI: > 100 µM
[45]
  GI50: 0.68 µM
  TGI: 3.95 µM
[46]
  GI50: 0.654 µM
  TGI: > 83.4 µM
[47]
  GI50: 3.36 µM
  TGI: > 100 µM
[48]
  GI50: 0.764 µM
  TGI: > 41.1 µM
[49]
  GI50: 0.469 µM
  TGI: > 100 µM
[50]
  GI50: 3.29 µM
  TGI: > 100 µM
[51]
  GI50: 1.05 µM
  TGI: 36.4 µM
[52]
  GI50: 0.831 µM
  TGI: > 100 µM
[53]
  GI50: 0.465 µM
  TGI: > 100 µM
[54]
  GI50: 0.917 µM
  TGI: > 100 µM
[55]
  GI50: 0.484 µM
  TGI: > 100 µM
[56]
  GI50: 0.29 µM
  TGI: 2.4 µM
[57]
  GI50: 0.844 µM
  TGI: > 100 µM
[58]
  GI50: 2.37 µM
  TGI: > 100 µM

## C=C(C)[C@@H]1CC[C@]2(C(=O)O)CC[C@]3(C)[C@H](CC[C@@H]4[C@@]5(C)C[C@@H](CC#Cc6ccc(Br)cc6)C(=O)C(C)(C)[C@@H]5CC[C@]43C)[C@@H]12
[1]
  GI50: 5.65 µM
  TGI: > 100 µM
[2]
  GI50: 2.58 µM
  TGI: 9.48 µM
[3]
  GI50: 4.95 µM
  TGI: > 100 µM
[4]
  GI50: 2.69 µM
  TGI: 8.34 µM
[5]
  GI50: 4.94 µM
  TGI: > 100 µM
[6]
  GI50: 4.07 µM
  TGI: 24.9 µM
[7]
  GI50: > 100 µM
  TGI: > 100 µM
[8]
  GI50: 12.6 µM
  TGI: 81.1 µM
[9]
  GI50: 7.59 µM
  TGI: > 100 µM
[10]
  GI50: 3.83 µM
  TGI: 23.9 µM
[11]
  GI50: 3.57 µM
  TGI: > 100 µM
[12]
  GI50: 5.27 µM
  TGI: 22.2 µM
[13]
  GI50: 4.44 µM
  TGI: > 100 µM
[14]
  GI50: 23.7 µM
  TGI: > 100 µM
[15]
  GI50: 22.4 µM
  TGI: > 100 µM
[16]
  GI50: 25.8 µM
  TGI: > 100 µM
[17]
  GI50: 5.84 µM
  TGI: > 100 µM
[18]
  GI50: 20.2 µM
  TGI: > 100 µM
[19]
  GI50: 3.31 µM
  TGI: 15.2 µM
[20]
  GI50: 4.94 µM
  TGI: > 100 µM
[21]
  GI50: 36 µM
  TGI: > 100 µM
[22]
  GI50: 62.6 µM
  TGI: > 100 µM
[23]
  GI50: 13.5 µM
  TGI: 34.6 µM
[24]
  GI50: 3.48 µM
  TGI: 14.1 µM
[25]
  GI50: 5.5 µM
  TGI: 21.8 µM
[26]
  GI50: 9.08 µM
  TGI: > 100 µM
[27]
  GI50: 12.4 µM
  TGI: 38.4 µM
[28]
  GI50: 2.42 µM
  TGI: 7.29 µM
[29]
  GI50: 18.2 µM
  TGI: > 100 µM
[30]
  GI50: 34.2 µM
  TGI: > 100 µM
[31]
  GI50: 94.3 µM
  TGI: > 100 µM
[32]
  GI50: 2.95 µM
  TGI: 75 µM
[33]
  GI50: 3.73 µM
  TGI: > 100 µM
[34]
  GI50: 4.83 µM
  TGI: > 100 µM
[35]
  GI50: 4.54 µM
  TGI: > 100 µM
[36]
  GI50: 2.8 µM
  TGI: > 100 µM
[37]
  GI50: 5.71 µM
  TGI: > 100 µM
[38]
  GI50: 17 µM
  TGI: 36.4 µM
[39]
  GI50: > 100 µM
  TGI: > 100 µM
[40]
  GI50: 15.6 µM
  TGI: > 100 µM
[41]
  GI50: 6.19 µM
  TGI: 64.8 µM
[42]
  GI50: 6.23 µM
  TGI: > 100 µM
[43]
  GI50: 6.26 µM
  TGI: > 100 µM
[44]
  GI50: 2.12 µM
  TGI: 6.72 µM
[45]
  GI50: 2.67 µM
  TGI: 12.2 µM
[46]
  GI50: 4.73 µM
  TGI: > 100 µM
[47]
  GI50: 3.67 µM
  TGI: 14.8 µM
[48]
  GI50: 22.5 µM
  TGI: > 100 µM
[49]
  GI50: 4.34 µM
  TGI: 83.3 µM
[50]
  GI50: 9.02 µM
  TGI: > 100 µM
[51]
  GI50: 21 µM
  TGI: 55 µM
[53]
  GI50: 9.33 µM
  TGI: > 100 µM
[54]
  GI50: 2.62 µM
  TGI: 8.25 µM
[55]
  GI50: 13.5 µM
  TGI: > 100 µM
[56]
  GI50: 15.6 µM
  TGI: > 100 µM
[57]
  GI50: 2.99 µM
  TGI: 9.25 µM
[58]
  GI50: 24.2 µM
  TGI: > 100 µM
